From patent US7250434B2, “CCK-1 receptor modulators” (Janssen Pharmaceutica N.V., priority 2003, dated 2007) come the findings set out here.

What is called Ki is the dissociation constant of the complex between target and ligand, obtained from inhibition or displacement.

Molecules are shown by their SMILES.

In the test the target is T1, CCK-1 receptor (Homo sapiens, UniProt P32238).
T1 construct: expressed in transfected cells; membranes
T1 sequence (P32238 1-428): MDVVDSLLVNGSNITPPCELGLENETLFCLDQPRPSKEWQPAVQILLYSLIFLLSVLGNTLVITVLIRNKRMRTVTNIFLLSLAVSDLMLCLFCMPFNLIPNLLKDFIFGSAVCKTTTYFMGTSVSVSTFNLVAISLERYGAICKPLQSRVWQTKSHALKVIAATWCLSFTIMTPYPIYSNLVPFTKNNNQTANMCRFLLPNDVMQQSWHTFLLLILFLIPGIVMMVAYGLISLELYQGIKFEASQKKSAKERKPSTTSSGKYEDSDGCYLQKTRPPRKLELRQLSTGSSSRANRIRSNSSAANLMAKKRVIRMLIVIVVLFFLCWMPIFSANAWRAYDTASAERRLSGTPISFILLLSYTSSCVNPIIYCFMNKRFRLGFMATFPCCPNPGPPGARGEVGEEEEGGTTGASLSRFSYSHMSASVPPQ
As to the kind of experiment: [125I]-BH-CCK-8S competition binding to membranes of CHO-K1 cells stably transfected with the CCK-1 receptor. Conditions: membranes of CCK-1 transfected CHO-K1 cells; 20 pM [125I]-BH-CCK-8S; 0.3 μM PD-134,308 present; 60 min at 21±3° C.; Cheng-Prusoff. On the procedure: CHO-K1 cells that had undergone stable transfection with the CCK-1 receptor were grown in DMEM supplemented with L-glutamine (2 mM), penicillin (50 units/mL) and streptomycin (50 μg/mL). Cells were cultured under continuous G418 selection (2 mM) and were harvested using a rubber cell scraper. CHO-K1 cells were sub-cultured a maximum of ten times before being reseeded from the original stocks.
Membranes were prepared from the stably transfected CHO-K1 cells. Frozen cell pellets (−40° C.) were thawed in 14 mL of buffer A (10 mM HEPES, 130 mM NaCl, 4.7 mM KCl, 5 mM MgCl, 1 mM EGTA and 15.4 mg/100 mL bacitracin at pH 7.2), adapted from Harper et al. (Br. J. Pharmacol. 1996, 118:1717-1726). The thawed pellets were homogenized using a Polytron PT-10 (7×1 s). The homogenates were centrifuged for 5 min at 1500 rpm (600×g), and the resulting pellets were discarded. The supernatants were re-centrifuged in order to collect the receptor-membrane pellets (25 min 15,000 rpm; 39,800×g), which were re-suspended in buffer A.
All assays were conducted in 96-well plates (GF/B millipore filter plates) using buffer A, with 0.3 μM PD-134,308, for the dilutions. The CCK-2 receptor ligand was included to eliminate the contribution of this receptor subtype to the binding. For the optimal cell number determination experiments 20 pM [^125I]-BH-CCK-8S (50 μL 60 pM solution) was incubated with a range of cell concentrations (2.5×105 to 12.5×10^5 cells/well) in a total volume of 150 μL. Total binding of [^125I]-BH-CCK-8S was determined in the presence of 15 μL of buffer A. Non-specific binding of [^125I]-BH-CCK-8S was determined in the presence of 15 μL of 100 μM 2-naphthalenesulphonyl L-aspartyl-(2-phenethyl)amide (2-NAP: see R. A. Hull et al. Br. J. Pharmacol. 1993, 108:734-740), a CCK-1 receptor selective antagonist that is structurally unrelated to the radioligand [^125I]-BH-CCK-8S. The assay preparation was incubated for 1 h at 21±3° C., and then the assay was terminated upon rapid filtration of the preparation under reduced pressure. The loaded filters were washed three times using undiluted PBS (100 μL), and then the residues were transferred to 5 mL scintillation tubes. Bound radioactivity was determined using a gamma counter (count time=1 min). From these experiments a cell concentration of 1 pellet in 40 mL of buffer (2.5×10^6 cells/mL) was chosen for use in other assays (below). To validate the radioligand concentration and incubation time for the assay, saturation and kinetic binding studies were also conducted (see M. F. Morton, The Pharmacological Characterization of Cholecystokinin Receptors in the Human Gastrointestinal Tract. PhD Thesis, University of London, 2000). The affinity of novel compounds was estimated by incubating membrane preparations with 15 μL of competing ligand (0.1 pM-1 mM) for 60 min at 21±3° C. The assay was then terminated according to the procedure outlined above.
The pKi values were determined using the equation of Y.-C. Cheng and W. H. Prusoff (Biochem. Pharmacol. 1973, 22(23):3099-3108):
[formula] To circumvent problems associated with computer-assisted data analysis of compounds with low affinity, the data obtained in the current study were weighted according to a method described by Morton (2000). In brief, 100% and 0% specific binding were defined independently using total binding and binding obtained in the presence of a high concentration of the reference antagonist, 2-NAP.

With `O=C(O)/C(=C/c1nc(-c2cc(Cl)ccc2Cl)c(-c2ccc3c(c2)OCO3)[nH]1)c1cccc2ccccc12` [Example 23, (E)-3-[5-Benzo[1,3]dioxol-5-yl-4-(2,5-dichloro-phenyl)-1H-imidazol-2-yl]-2-naphthalen-1-yl-acrylic acid], the Ki was 79.4 nM.
The result for `COc1ccc(-c2[nH]c(CC(C(=O)O)c3cccc(C)c3)nc2-c2ccc(Cl)c(Cl)c2)cc1` (stereo not drawn) [Example 24, 3-[4-(3,4-Dichloro-phenyl)-5-(4-methoxy-phenyl)-1H-imidazol-2-yl]-2-m-tolyl-propionic acid] reads 31.6 nM.
Then `COc1ccc(-c2[nH]c(CC(C(=O)O)c3cccc(Cl)c3)nc2-c2ccc(Cl)c(Cl)c2)cc1` (stereo not drawn) [Example 25, 2-(3-Chloro-phenyl)-3-[4-(3,4-dichloro-phenyl)-5-(4-methoxy-phenyl)-1H-imidazol-2-yl]-propionic acid], with 31.6 nM; and `COc1ccc(-c2[nH]c(CC(C(=O)O)c3cccc4ccccc34)nc2-c2ccc(Cl)c(Cl)c2)cc1` (stereo not drawn) [Example 26, 3-[4-(3,4-Dichloro-phenyl)-5-(4-methoxy-phenyl)-1H-imidazol-2-yl]-2-naphthalen-1-yl-propionic acid], with 39.8 nM.
In turn, `COc1ccc(-c2[nH]c(CC(C(=O)O)c3cccc(C(F)(F)F)c3)nc2-c2ccc(Cl)c(Cl)c2)cc1` (stereo not drawn) [Example 27, 3-[4-(3,4-Dichloro-phenyl)-5-(4-methoxy-phenyl)-1H-imidazol-2-yl]-2-(3-trifluoromethyl-phenyl)-propionic acid] showed a Ki of 50.1 nM.
Then `COc1ccc(-c2[nH]c(CC(C(=O)O)c3ccc(Cl)cc3)nc2-c2ccc(Cl)c(Cl)c2)cc1` (stereo not drawn) [Example 28, 2-(4-Chloro-phenyl)-3-[4-(3,4-dichloro-phenyl)-5-(4-methoxy-phenyl)-1H-imidazol-2-yl]-propionic acid], with 63.1 nM; and `COc1ccc(-c2[nH]c(CC(C(=O)O)c3ccc(C)cc3)nc2-c2ccc(Cl)c(Cl)c2)cc1` (stereo not drawn) [Example 29, 3-[4-(3,4-Dichloro-phenyl)-5-(4-methoxy-phenyl)-1H-imidazol-2-yl]-2-p-tolyl-propionic acid], with 126 nM; and `Cc1ccc(-c2nc(CC(C(=O)O)c3cccc(C)c3)[nH]c2-c2ccc(C)cc2)cc1` (stereo not drawn) [Example 30, 3-(4,5-Di-p-tolyl-1H-imidazol-2-yl)-2-m-tolyl-propionic acid], with 20 nM.
Consider `Cc1ccc(-c2nc(CC(C(=O)O)c3cccc(C)c3)n(C)c2-c2ccc(C)cc2)cc1` (stereo not drawn) [Example 31, 3-(1-Methyl-4,5-di-p-tolyl-1H-imidazol-2-yl)-2-m-tolyl-propionic acid], for which the affinity, expressed as Ki, was 39.8 nM.
Take `O=C(O)C(Cc1nc(-c2ccccc2Cl)c(-c2ccccc2Cl)[nH]1)c1cccc2ccccc12` (stereo not drawn) [Example 32, 3-[4,5-Bis-(2-chloro-phenyl)-1H-imidazol-2-yl]-2-naphthalen-1-yl-propionic acid]: the inhibitory constant (Ki) was 398 nM.
The result for `COc1cccc(-c2nc(CC(C(=O)O)c3cccc4ccccc34)[nH]c2-c2cccc(OC)c2)c1` (stereo not drawn) [Example 33, 3-[4,5-Bis-(3-methoxy-phenyl)-1H-imidazol-2-yl]-2-naphthalen-1-yl-propionic acid] reads 2510 nM; that for `O=C(O)C(Cc1nc(-c2ccc(F)cc2)c(-c2ccc(F)cc2)[nH]1)c1cccc2ccccc12` (stereo not drawn) [Example 34, 3-[4,5-Bis-(4-fluoro-phenyl)-1H-imidazol-2-yl]-2-naphthalen-1-yl-propionic acid], 10000 nM.
